Reference: patent US20240180895A1, “USE OF KAPPA OPIOID RECEPTOR AGONISTS TO TREAT CARDIOVASCULAR DISEASE” (Board of Supervisors of Louisiana State University and …, priority 2021, published 2024)

What was measured:
[1] = test system: spontaneously hypertensive rats; experiment: Chronic oral nalfurafine, radiotelemetry blood pressure (FIG. 18); assay type: in vivo, rat; conditions: nalfurafine 0.5 mg/kg oral once per day for 5 weeks
Experimental: Male spontaneously hypertensive rats (SHR; Charles Rivers) were single housed and allowed tap water and standard rodent diet ad libitum. All procedures and experiments were conducted in accordance with the National Institutes of Health guidelines for the care and use of animals.
Radiotelemetry transmitters (Data Sciences International, St. Paul, MN) were implanted into SHR for chronic recording of blood pressure and heart rate and followed as previously published.^56 Briefly, rats were anesthetized and maintained on 2% isoflurane and the right femoral artery was surgically exposed. The transmitter catheter was inserted into the femoral artery and advanced until reaching the abdominal aorta. The site exposing the femoral artery was sutured and rats were allowed 1 week of recovery. Telemetry data was analyzed using Ponemah software (DSI, St. Paul, MN).
Spontaneously hypertensive rats were orally administered (gavage) nalfurafine (0.5 mg/kg) or vehicle (water) once per day for 5 weeks following recovery from radiotelemetry transmitter insertion. Blood pressure was recorded once per week and the 12:00-14:00 time frame was plotted.
All results are expressed as mean±SEM. Statistically different changes for both experimental protocols were determined using 2-way ANOVA with repeated measures and were considered statistically different following a significant/value for an interaction between experimental group and time. Statistical significance was determined as P<0.05, and statistics were performed on Prism 7.05 software (GraphPad Software, Inc, San Diego, CA).

[2] = in rats; cited from earlier work
[3] = test system: conscious Sprague-Dawley rats; experiment: Acute cardiovascular and renal excretory studies, i.v. bolus (Example 3); assay type: in vivo, rat
Experimental: Animals: Male Sprague-Dawley (SD) rats (Envigo Labs, Indianapolis, IN), 300-350 g, were individually housed under a 12 h light-dark cycle and allowed tap water and standard rodent diet ad libitum. Rats were randomly assigned to experimental groups for all acute and subacute studies. All procedures were approved by the Louisiana State University Health Sciences Center Institutional Animal Care and Use Committee and conducted in accordance with the National Institutes of Health guidelines for the care and use of animals.
Surgical Procedures: Aseptic technique was followed for all surgical procedures. On the morning of the experiment, rats were anesthetized with and maintained under inhaled 2% isoflurane, and polyethylene catheters (PE50; BD Diagnostics, Sparks, MD) were surgically inserted into the left femoral vein and left femoral artery for the infusion of saline and/or drug administration and the recording of arterial blood pressure, respectively. Subsequently, a suprapubic incision was made and a flanged polyethylene catheter (PE240; BD Diagnostics, Sparks, MD) was inserted into the bladder, exteriorized, and sutured to surrounding muscle and skin. Rats were then placed in an elevated restrainer (Krowicki & Kapusta, 2011) to recover from surgery and allow collection of urine. When acute experimental protocols were completed, rats were anesthetized via isoflurane and decapitated.
Acute Cardiovascular and Renal Excretory Studies: Following surgery, rats received an i.v. infusion of isotonic saline at 55 μL min^−1 throughout the duration of the experiment and were allowed 4-6 hours to recover from anesthesia. Arterial catheters were connected to a pressure transducer (MLT0670, ADInstruments, Sydney, Australia), which was connected to Powerlab 8/30 (ADInstruments) for recording of pulsatile and mean arterial blood pressure (MAP) and heart rate (HR). Blood pressure and HR were visualized using LabChart software (v8.1.5; ADInstruments). […] Following this control period, drug or vehicle (isotonic saline) was injected into the femoral vein catheter at a volume of 2 cc kg^−1, and urines were collected in 10 minute periods for a span of 90 minutes. […] All groups are n=6. Urine volume was measured gravimetrically, urine sodium and potassium concentrations were measured using flame photometry (model 943; Instrumentation Laboratories, Lexington, MA), and urine osmolality was measured using a vapor pressure osmometer (model 5600; WESCOR, Logan, UT).
Experimental Design and Analysis: All results are expressed as mean±SEM. […] Means between groups for total urine output, Na^+ concentration, K^+ concentration, and urine osmolality were compared using a Student's t-test. Statistical significance was characterized as P<0.05. Statistics were carried out using Prism 7.05 software (GraphPad Software, Inc., San Diego, CA) and IBM SPSS Statistics (IBM, Armonk, NY).

Sprague-Dawley rats = experiment: Prevention of diuretic resistance to twice daily furosemide by nalfurafine, 5-hour urine (FIG. 15); assay type: in vivo, rat; conditions: nalfurafine 10 μg/kg IP added to furosemide 20 mg/kg twice daily
Experimental: Male Sprague-Dawley rats were placed in individual metabolic cages in a room with 12-hour automatic light on/off control and allowed tap water and rodent chow ad libitum. Over the next two (2) days (control period), rats were administered vehicle (5% NaOH; 1 M PBS, IP) in the morning (9:00 am) and afternoon (2:00 pm) of each day, with urine collected for 5-hours starting immediately after the first injection. […] This was repeated for 4 consecutive days (experimental period).

[4] = i.v. bolus, cumulative 90-min urine, same doses, mean±SEM

Compound: CN(C(=O)/C=C/c1ccoc1)[C@@H]1CC[C@@]2(O)[C@H]3Cc4ccc(O)c5c4[C@@]2(CCN3CC2CC2)[C@H]1O5 [nalfurafine, Nalfurafine]
- Diastolic blood pressure and heart rate vs vehicle [1]: no significant interaction between treatment over time for diastolic blood pressure or heart rate
- Mean arterial pressure vs vehicle ([1]; 12:00-14:00 time frame): significantly lower mean arterial pressure at the 3-week time point
- Systolic blood pressure vs vehicle ([1]; 12:00-14:00 time frame): significantly lower in the nalfurafine group compared to vehicle at 3, 4, and 5 weeks
- Half-life [2]: ~6 h
- Duration of the increase in urine flow rate above control ([3]; after i.v. bolus): 50 min
- Time of peak diuresis (urine flow rate) ([3]; after i.v. bolus): 30 min
- Time of peak antikaliuresis ([3]; after i.v. bolus 5 μg kg−1): 50 min
- Time of peak antinatriuresis ([3]; after i.v. bolus 5 μg kg−1): 40 min
- Effect on heart rate (HR) ([3]; i.v. bolus, 90-min protocol): did not change HR
- Potassium concentration [K+] in cumulative urine [3, 4]: 4.51±0.68 μeq ml^−1
- Sodium concentration [Na+] in cumulative urine [3, 4]: 43.59±5.71 μeq ml^−1
- Urine osmolality [3, 4]: 158.7 ± 16.78 mmol/kg
- Mean arterial pressure (MAP), peak Δ ([3]; i.v. bolus, peak change vs group control value, time of peak 40 to 90 min as printed): −11 mmHg
- Decrease in MAP ([3]; i.v. nalfurafine, as summarised in the discussion): ~10 mmHg
- Effect on diuretic resistance to furosemide (Sprague-Dawley rats): prevents the diuretic resistance
